Laboratory results taken from patent publication EP4745137A1 (Gluetacs Therapeutics (Shanghai) Co., Ltd., priority 2023, dated 2025).

Tests used:
Type in all cases: cell-based
Settings in all cases: 24 hours of compound treatment
IKZF3 = molecular target: T1, IKZF3 (Homo sapiens, UniProt Q96SW2+Q9UKT9); assay: Western-blot assay of substrate protein degradation in hPBMCs, IKZF3
T1 construct: endogenous in cells; host or cells: hPBMCs (Milecell Biotechnologies)
Experimental: (§1) After 24 hours of compounds treatment, cells were harvested and lysed in RIPA protein lysate containing protease inhibitors on ice for 30 min, followed by centrifugation. The supernatant was aspirated as the extracted total cell protein. The protein concentration of the supernatant was determined using the conventional BCA (Bicinchoninic Acid) assay. • (2) To the collected supernatant, 5X SDS sample loading buffer was added, followed by denaturation at 95°C for 5 minutes. The denatured samples were then separated by SDS-PAGE electrophoresis on a polyacrylamide gel, transferred onto a nitrocellulose membrane (0.45 µm NC membrane), blocked with blocking buffer at room temperature for 1 hour, and subjected to antibody incubation and development procedures according to the antibody manufacturer's instructions (Cell Signaling Technology Company). […]
(§2) Target protein remaining (%) refers to the percentage of target protein remaining in cells after treatment with protein degrader compounds.
(§3) Calculation method for target protein remaining (%): Use ImageJ software to measure grayscale values of Western blot bands from drug (protein degrader)-treated samples. The grayscale value of drug-treated bands is divided by that of internal control protein bands, and the resulting quotient is normalized to obtain the relative percentage of remaining target protein after protein degrader treatment. Target protein degradation rate(%) = 1−target protein remaining(%). [formula]

WEE1 = molecular target: T2, WEE1 (Homo sapiens, UniProt P30291+Q96SW2); assay: Western-blot assay of substrate protein degradation in hPBMCs, WEE1
T2 construct: endogenous in cells; host or cells: hPBMCs (Milecell Biotechnologies)
Experimental: as §1, §2, §3

GSPT1 = molecular target: T3, GSPT1 (Homo sapiens, UniProt P15170+Q96SW2); assay: Western-blot assay of substrate protein degradation in hPBMCs, GSPT1
T3 construct: endogenous in cells; host or cells: hPBMCs (Milecell Biotechnologies)
Experimental: as §1, §2, §3

CK1α = molecular target: T4, CK1α (Homo sapiens, UniProt P48729+Q96SW2); assay: Western-blot assay of substrate protein degradation in hPBMCs, CK1α
T4 construct: endogenous in cells; host or cells: hPBMCs (Milecell Biotechnologies)
Experimental: as §1, §2, §3

IKZF2 = molecular target: T5, IKZF2 (Homo sapiens, UniProt Q96SW2+Q9UKS7); assay: Western-blot assay of substrate protein degradation in hPBMCs, IKZF2
T5 construct: endogenous in cells; host or cells: hPBMCs (Milecell Biotechnologies)
Experimental: as §1, §2, §3

IKZF1 = molecular target: T6, IKZF1 (Homo sapiens, UniProt Q13422+Q96SW2); assay: Western-blot assay of substrate protein degradation in hPBMCs, IKZF1
T6 construct: endogenous in cells; host or cells: hPBMCs (Milecell Biotechnologies)
Experimental: as §1, §2, §3

[1] = compounds tested at 50 nM and 500 nM (concentration of the table not stated)
[2] = 50 nM and 500 nM tested (concentration behind the class not stated)

T4 sequence (P48729 whole entry): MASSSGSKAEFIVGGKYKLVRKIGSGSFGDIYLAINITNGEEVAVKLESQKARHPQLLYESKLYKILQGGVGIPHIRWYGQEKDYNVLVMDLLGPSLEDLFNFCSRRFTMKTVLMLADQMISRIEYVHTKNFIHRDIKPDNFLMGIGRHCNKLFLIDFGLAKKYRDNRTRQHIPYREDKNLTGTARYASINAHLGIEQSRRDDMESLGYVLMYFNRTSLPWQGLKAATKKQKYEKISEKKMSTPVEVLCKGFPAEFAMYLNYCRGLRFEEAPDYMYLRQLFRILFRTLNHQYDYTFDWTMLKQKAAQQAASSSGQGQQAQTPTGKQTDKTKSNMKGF
T4 sequence (Q96SW2 whole entry): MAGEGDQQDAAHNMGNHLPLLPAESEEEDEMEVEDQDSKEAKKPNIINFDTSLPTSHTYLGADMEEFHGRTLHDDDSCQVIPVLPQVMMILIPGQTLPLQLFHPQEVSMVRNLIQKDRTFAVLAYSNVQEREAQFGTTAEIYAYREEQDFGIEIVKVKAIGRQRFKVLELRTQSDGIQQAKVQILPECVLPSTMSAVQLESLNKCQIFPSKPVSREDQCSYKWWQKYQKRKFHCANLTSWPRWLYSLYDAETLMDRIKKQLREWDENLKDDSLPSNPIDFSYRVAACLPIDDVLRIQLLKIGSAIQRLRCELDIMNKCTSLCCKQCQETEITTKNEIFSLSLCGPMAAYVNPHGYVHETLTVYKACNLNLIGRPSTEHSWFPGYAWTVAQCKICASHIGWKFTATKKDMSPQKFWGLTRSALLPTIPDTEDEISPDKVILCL
T4 sequence (Q16531 whole entry partner): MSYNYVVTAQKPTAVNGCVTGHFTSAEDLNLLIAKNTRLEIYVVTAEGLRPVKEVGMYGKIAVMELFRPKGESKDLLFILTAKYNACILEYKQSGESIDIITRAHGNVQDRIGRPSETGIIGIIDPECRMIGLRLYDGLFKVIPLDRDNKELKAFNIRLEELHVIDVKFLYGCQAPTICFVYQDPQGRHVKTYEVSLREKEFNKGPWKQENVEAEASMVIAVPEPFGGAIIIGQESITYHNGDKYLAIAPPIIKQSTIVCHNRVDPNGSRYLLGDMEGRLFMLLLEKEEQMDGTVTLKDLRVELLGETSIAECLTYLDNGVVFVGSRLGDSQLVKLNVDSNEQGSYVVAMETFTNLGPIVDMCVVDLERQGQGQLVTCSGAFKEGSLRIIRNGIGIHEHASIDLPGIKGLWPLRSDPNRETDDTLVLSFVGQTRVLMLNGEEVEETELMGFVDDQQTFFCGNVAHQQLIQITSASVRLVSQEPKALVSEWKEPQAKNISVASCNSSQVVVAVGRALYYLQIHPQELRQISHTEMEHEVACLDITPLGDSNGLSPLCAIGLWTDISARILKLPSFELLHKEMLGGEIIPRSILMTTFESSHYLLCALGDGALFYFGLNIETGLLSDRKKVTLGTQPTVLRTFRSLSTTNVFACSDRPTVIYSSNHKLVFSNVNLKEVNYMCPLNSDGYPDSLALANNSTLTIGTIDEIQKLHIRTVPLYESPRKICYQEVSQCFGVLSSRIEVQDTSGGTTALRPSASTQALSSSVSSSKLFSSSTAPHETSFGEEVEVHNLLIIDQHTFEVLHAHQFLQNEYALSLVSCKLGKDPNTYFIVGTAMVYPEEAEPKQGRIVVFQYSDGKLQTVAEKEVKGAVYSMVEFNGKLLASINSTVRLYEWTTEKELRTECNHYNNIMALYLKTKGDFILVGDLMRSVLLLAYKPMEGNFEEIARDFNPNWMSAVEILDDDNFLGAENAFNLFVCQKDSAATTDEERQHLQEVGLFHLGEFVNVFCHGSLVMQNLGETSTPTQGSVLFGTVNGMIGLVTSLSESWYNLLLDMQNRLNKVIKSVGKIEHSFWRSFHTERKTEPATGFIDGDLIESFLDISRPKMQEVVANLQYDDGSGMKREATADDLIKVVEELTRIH
T3 sequence (P15170 whole entry): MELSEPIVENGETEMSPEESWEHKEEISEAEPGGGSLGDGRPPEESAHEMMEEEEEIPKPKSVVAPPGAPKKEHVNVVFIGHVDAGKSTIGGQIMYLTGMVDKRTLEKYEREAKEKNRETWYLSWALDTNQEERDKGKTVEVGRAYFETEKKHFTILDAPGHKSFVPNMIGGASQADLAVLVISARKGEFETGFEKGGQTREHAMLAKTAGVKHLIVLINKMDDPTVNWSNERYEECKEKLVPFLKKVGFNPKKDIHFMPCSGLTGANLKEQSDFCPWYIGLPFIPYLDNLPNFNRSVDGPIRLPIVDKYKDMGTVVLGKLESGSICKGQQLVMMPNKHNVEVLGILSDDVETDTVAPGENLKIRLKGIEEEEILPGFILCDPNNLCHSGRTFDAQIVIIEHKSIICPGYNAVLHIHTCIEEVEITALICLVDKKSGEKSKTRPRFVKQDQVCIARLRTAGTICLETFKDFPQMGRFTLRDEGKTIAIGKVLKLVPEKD
T3 sequence (Q96SW2 whole entry): as the sequence (Q96SW2 whole entry) above
T3 sequence (Q16531 whole entry partner): as the sequence (Q16531 whole entry partner) above
T1 sequence (Q9UKT9 whole entry): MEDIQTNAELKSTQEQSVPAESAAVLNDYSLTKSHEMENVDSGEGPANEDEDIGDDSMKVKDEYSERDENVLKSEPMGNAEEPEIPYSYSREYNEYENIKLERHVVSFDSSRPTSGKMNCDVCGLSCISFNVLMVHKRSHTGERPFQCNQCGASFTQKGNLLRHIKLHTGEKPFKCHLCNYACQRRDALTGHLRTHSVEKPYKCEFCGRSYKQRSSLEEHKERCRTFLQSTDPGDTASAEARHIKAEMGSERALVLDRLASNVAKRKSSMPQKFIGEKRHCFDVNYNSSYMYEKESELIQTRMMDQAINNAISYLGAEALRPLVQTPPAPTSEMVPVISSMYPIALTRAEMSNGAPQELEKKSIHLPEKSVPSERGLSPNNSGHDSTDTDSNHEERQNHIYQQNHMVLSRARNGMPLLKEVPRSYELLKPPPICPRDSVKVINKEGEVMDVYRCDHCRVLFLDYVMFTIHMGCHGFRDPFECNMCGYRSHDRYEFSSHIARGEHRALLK
T1 sequence (Q96SW2 whole entry): as the sequence (Q96SW2 whole entry) above
T1 sequence (Q16531 whole entry partner): as the sequence (Q16531 whole entry partner) above
T2 sequence (P30291 whole entry): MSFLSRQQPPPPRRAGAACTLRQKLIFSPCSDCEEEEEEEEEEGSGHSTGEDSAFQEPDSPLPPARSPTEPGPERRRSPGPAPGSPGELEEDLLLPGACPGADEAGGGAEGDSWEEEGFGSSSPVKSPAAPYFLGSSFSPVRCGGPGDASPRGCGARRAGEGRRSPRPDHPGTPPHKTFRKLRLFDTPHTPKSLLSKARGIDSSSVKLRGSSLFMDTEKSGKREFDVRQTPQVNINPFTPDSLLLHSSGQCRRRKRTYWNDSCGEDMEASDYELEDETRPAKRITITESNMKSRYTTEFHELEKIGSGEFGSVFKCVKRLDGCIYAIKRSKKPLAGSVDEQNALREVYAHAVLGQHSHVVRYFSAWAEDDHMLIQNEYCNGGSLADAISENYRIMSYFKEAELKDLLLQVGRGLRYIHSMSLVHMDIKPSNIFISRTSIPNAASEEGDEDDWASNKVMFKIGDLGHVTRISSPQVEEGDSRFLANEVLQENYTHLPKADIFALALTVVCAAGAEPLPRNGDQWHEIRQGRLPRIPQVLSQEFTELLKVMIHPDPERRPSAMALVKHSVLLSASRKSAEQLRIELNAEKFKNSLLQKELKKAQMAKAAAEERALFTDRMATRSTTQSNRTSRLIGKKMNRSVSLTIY
T2 sequence (Q96SW2 whole entry): as the sequence (Q96SW2 whole entry) above
T2 sequence (Q16531 whole entry partner): as the sequence (Q16531 whole entry partner) above
T6 sequence (Q13422 whole entry): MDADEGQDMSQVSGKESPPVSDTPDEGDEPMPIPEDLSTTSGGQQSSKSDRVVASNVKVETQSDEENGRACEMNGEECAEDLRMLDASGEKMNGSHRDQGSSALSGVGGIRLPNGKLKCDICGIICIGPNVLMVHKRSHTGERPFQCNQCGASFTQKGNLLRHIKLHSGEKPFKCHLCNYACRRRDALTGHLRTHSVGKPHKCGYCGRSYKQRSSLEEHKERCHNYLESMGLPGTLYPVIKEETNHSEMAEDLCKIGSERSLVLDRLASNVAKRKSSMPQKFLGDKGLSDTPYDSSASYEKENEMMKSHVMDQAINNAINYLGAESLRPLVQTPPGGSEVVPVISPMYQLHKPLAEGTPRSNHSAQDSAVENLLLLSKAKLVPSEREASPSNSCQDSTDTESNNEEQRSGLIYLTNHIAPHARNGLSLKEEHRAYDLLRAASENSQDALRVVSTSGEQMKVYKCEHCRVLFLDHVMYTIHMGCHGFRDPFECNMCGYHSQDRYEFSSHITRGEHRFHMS
T6 sequence (Q96SW2 whole entry): as the sequence (Q96SW2 whole entry) above
T6 sequence (Q16531 whole entry partner): as the sequence (Q16531 whole entry partner) above

| Structure (SMILES) | IKZF3 substrate protein remaining % (IKZF3; [1]) | Weel substrate protein remaining % (WEE1; [1]) | GSPT1 substrate protein remaining % (GSPT1; [1]) | CK1a substrate protein remaining % (CK1α; [1]) | IKZF2 substrate protein remaining % (IKZF2; [1]) | IKZF 1 substrate protein remaining % (IKZF1; [1]) | IKZF3 substrate protein remaining % (IKZF3; [2]) | Weel substrate protein remaining % (WEE1; [2]) | GSPT1 substrate protein remaining % (GSPT1; [2]) | CK1a substrate protein remaining % (CK1α; [2]) | IKZF2 substrate protein remaining % (IKZF2; [2]) | IKZF 1 substrate protein remaining % (IKZF1; [2]) |
| --- | --- | --- | --- | --- | --- | --- | --- | --- | --- | --- | --- | --- |
| O=C1CCC(N2C(=O)c3ccc(CN4CC=C(c5ccnc6cc(F)ccc56)CC4)cc3C2=O)C(=O)N1 (stereo not drawn) [GT-06267, 2-(2,6-dioxopiperidin-3-yl)-5-((4-(7-fluoroquinolin-4-yl)-3,6-dihydropyridin-1(2H)-yl)methyl)isoindoline-1,3-dione] | A (0% ≤ substrate protein remaining % ≤ 80%) | A (0% ≤ substrate protein remaining % ≤ 80%) | A (0% ≤ substrate protein remaining % ≤ 80%) | A (0% ≤ substrate protein remaining % ≤ 80%) | A (0% ≤ substrate protein remaining % ≤ 80%) | B (80%< substrate protein remaining %≤ 100%) |  |  |  |  |  |  |
| O=C1CCC(N2C(=O)c3ccc(CN4CC=C(c5cccc6cnccc56)CC4)cc3C2=O)C(=O)N1 (stereo not drawn) [GT-06268, 2-(2,6-dioxopiperidin-3-yl)-5-((4-(isoquinolin-5-yl)-3,6-dihydropyridin-1(2H)-yl)methyl)isoindoline-1,3-dione] | A (0% ≤ substrate protein remaining % ≤ 80%) | A (0% ≤ substrate protein remaining % ≤ 80%) | A (0% ≤ substrate protein remaining % ≤ 80%) | A (0% ≤ substrate protein remaining % ≤ 80%) | A (0% ≤ substrate protein remaining % ≤ 80%) | B (80%< substrate protein remaining %≤ 100%) |  |  |  |  |  |  |
| O=C1CCC(N2C(=O)c3ccc(CN4CC(C5CCOc6cc(F)ccc65)C4)cc3C2=O)C(=O)N1 (stereo not drawn) [GT-06269, 2-(2,6-dioxopiperidin-3-yl)-5-((3-(7-fluorochroman-4-yl)azetidin-1-yl)methyl)isoindoline-1,3-dione] | A (0% ≤ substrate protein remaining % ≤ 80%) | B (80%< substrate protein remaining %≤ 100%) | A (0% ≤ substrate protein remaining % ≤ 80%) | B (80%< substrate protein remaining %≤ 100%) | A (0% ≤ substrate protein remaining % ≤ 80%) | B (80%< substrate protein remaining %≤ 100%) |  |  |  |  |  |  |
| O=C1CCC(N2C(=O)c3ccc(CN4CC(c5ccnc6cc(F)ccc56)C4)cc3C2=O)C(=O)N1 (stereo not drawn) [GT-06270, 2-(2,6-dioxopiperidin-3-yl)-5-((3-(7-fluoroquinolin-4-yl)azetidin-1-yl)methyl)isoindoline-1,3-dione] |  |  |  |  |  |  | B (80%< substrate protein remaining %≤ 100%) | B (80%< substrate protein remaining %≤ 100%) | A (0% ≤ substrate protein remaining % ≤ 80%) | B (80%< substrate protein remaining %≤ 100%) | B (80%< substrate protein remaining %≤ 100%) | B (80%< substrate protein remaining %≤ 100%) |
| O=C1CCC(N2C(=O)c3ccc(CN4CC(N5CCc6cc(F)ccc65)C4)cc3C2=O)C(=O)N1 (stereo not drawn) [GT-06271, 2-(2,6-dioxopiperidin-3-yl)-5-((3-(5-fluoroindolin-1-yl)azetidin-1-yl)methyl)isoindoline-1,3-dione] |  |  |  |  |  |  | B (80%< substrate protein remaining %≤ 100%) | A (0% ≤ substrate protein remaining % ≤ 80%) | A (0% ≤ substrate protein remaining % ≤ 80%) | B (80%< substrate protein remaining %≤ 100%) | A (0% ≤ substrate protein remaining % ≤ 80%) | A (0% ≤ substrate protein remaining % ≤ 80%) |
| O=C1CCC(N2C(=O)c3ccc(CN4CCN(c5cccc(Cl)c5Cl)CC4)cc3C2=O)C(=O)N1 (stereo not drawn) [GT-06273, 5-((4-(2,3-dichlorophenyl)piperazin-1-yl)methyl)-2-(2,6-dioxopiperidin-3-yl)isoindoline-1,3-dione] |  |  |  |  |  |  | A (0% ≤ substrate protein remaining % ≤ 80%) | A (0% ≤ substrate protein remaining % ≤ 80%) | A (0% ≤ substrate protein remaining % ≤ 80%) | A (0% ≤ substrate protein remaining % ≤ 80%) | A (0% ≤ substrate protein remaining % ≤ 80%) | A (0% ≤ substrate protein remaining % ≤ 80%) |
| O=C1CCC(N2C(=O)c3ccc(CN4CCN(c5ccccc5Cl)CC4)cc3C2=O)C(=O)N1 (stereo not drawn) [GT-06274, 5-((4-(2-chlorophenyl)piperazin-1-yl)methyl)-2-(2,6-dioxopiperidin-3-yl)isoindoline-1,3-dione] |  |  |  |  |  |  | B (80%< substrate protein remaining %≤ 100%) | B (80%< substrate protein remaining %≤ 100%) | A (0% ≤ substrate protein remaining % ≤ 80%) | B (80%< substrate protein remaining %≤ 100%) | B (80%< substrate protein remaining %≤ 100%) | B (80%< substrate protein remaining %≤ 100%) |
| O=C1CCC(N2C(=O)c3ccc(CN4CCN(c5ccc(Cl)cc5)CC4)cc3C2=O)C(=O)N1 (stereo not drawn) [GT-06275, 5-((4-(4-chlorophenyl)piperazin-1-yl)methyl)-2-(2,6-dioxopiperidin-3-yl)isoindoline-1,3-dione] |  |  |  |  |  |  | B (80%< substrate protein remaining %≤ 100%) | B (80%< substrate protein remaining %≤ 100%) | A (0% ≤ substrate protein remaining % ≤ 80%) | B (80%< substrate protein remaining %≤ 100%) | B (80%< substrate protein remaining %≤ 100%) | B (80%< substrate protein remaining %≤ 100%) |
| Cc1cccc(N2CCN(Cc3ccc4c(c3)C(=O)N(C3CCC(=O)NC3=O)C4=O)CC2)c1 (stereo not drawn) [GT-06276, 2-(2,6-dioxopiperidin-3-yl)-5-((4-(m-tolyl)piperazin-1-yl)methyl)isoindoline-1,3-dione] |  |  |  |  |  |  | B (80%< substrate protein remaining %≤ 100%) | B (80%< substrate protein remaining %≤ 100%) | A (0% ≤ substrate protein remaining % ≤ 80%) | B (80%< substrate protein remaining %≤ 100%) | A (0% ≤ substrate protein remaining % ≤ 80%) | A (0% ≤ substrate protein remaining % ≤ 80%) |
| Cc1ccc(N2CCN(Cc3ccc4c(c3)C(=O)N(C3CCC(=O)NC3=O)C4=O)CC2)cc1 (stereo not drawn) [GT-06277, 2-(2,6-dioxopiperidin-3-yl)-5-((4-(p-tolyl)piperazin-1-yl)methyl)isoindoline-1,3-dione] |  |  |  |  |  |  | B (80%< substrate protein remaining %≤ 100%) | B (80%< substrate protein remaining %≤ 100%) | A (0% ≤ substrate protein remaining % ≤ 80%) | B (80%< substrate protein remaining %≤ 100%) | B (80%< substrate protein remaining %≤ 100%) | B (80%< substrate protein remaining %≤ 100%) |
| Cc1cc(C2=CCN(Cc3ccc4c(c3)C(=O)N(C3CCC(=O)NC3=O)C4=O)CC2)cs1 (stereo not drawn) [GT-06279, 2-(2,6-dioxopiperidin-3-yl)-5-((4-(5-methylthiophen-3-yl)-3,6-dihydropyridin-1(2H)-yl)methyl)isoindoline-1,3-dione] |  |  |  |  |  |  | A (0% ≤ substrate protein remaining % ≤ 80%) | A (0% ≤ substrate protein remaining % ≤ 80%) | A (0% ≤ substrate protein remaining % ≤ 80%) | A (0% ≤ substrate protein remaining % ≤ 80%) | A (0% ≤ substrate protein remaining % ≤ 80%) | A (0% ≤ substrate protein remaining % ≤ 80%) |
| Cc1ccsc1C1CCN(Cc2ccc3c(c2)C(=O)N(C2CCC(=O)NC2=O)C3=O)CC1 (stereo not drawn) [GT-06280, 2-(2,6-dioxopiperidin-3-yl)-5-((4-(3-methylthiophen-2-yl)piperidin-1-yl)methyl)isoindoline-1,3-dione] |  |  |  |  |  |  | B (80%< substrate protein remaining %≤ 100%) | B (80%< substrate protein remaining %≤ 100%) | A (0% ≤ substrate protein remaining % ≤ 80%) | B (80%< substrate protein remaining %≤ 100%) | B (80%< substrate protein remaining %≤ 100%) | B (80%< substrate protein remaining %≤ 100%) |
